{"source": "patent US9510592B2", "about": "“Pesticidal compositions and processes related thereto” (Dow AgroSciences LLC, priority 2012, dated 2016)"}
{"tested_on": "Beet Armyworm (Spodoptera exigua)", "assay": "Bioassay on Beet Armyworm (BAW), 128-well diet tray assay", "format": "in vivo", "conditions": "percent mortality of second instar larvae, 50 μg/cm^2 on artificial diet, five to seven days, 25° C.; Table 3", "method": "Certain molecules disclosed in this document were tested against BAW and CEW and CL using procedures described in the following examples. In the reporting of the results, the “BAW & CEW & CL Rating Table” was used (See Table Section).\nBioassays on BAW (Spodoptera exigua)\nBioassays on BAW were conducted using a 128-well diet tray assay. one to five second instar BAW larvae were placed in each well (3 mL) of the diet tray that had been previously filled with 1 mL of artificial diet to which 50 μg/cm^2 of the test compound (dissolved in 50 μL of 90:10 acetone-water mixture) had been applied (to each of eight wells) and then allowed to dry. Trays were covered with a clear self-adhesive cover, and held at 25° C., 14:10 light-dark for five to seven days. Percent mortality was recorded for the larvae in each well; activity in the eight wells was then averaged. The results are indicated in the table entitled “Table 3: Assay Results” (See Table Section)."}
{"smiles": "O=C(NC1CSC1)c1ccc(/C=C/C(c2cc(Cl)c(F)c(Cl)c2)C(F)(F)F)cc1F", "note": "(stereo not drawn) [AC67]", "BAW Rating": "A (50-100)"}
{"smiles": "CCNC(=S)NCc1ccc(/C=C/C(c2cc(Cl)c(Cl)c(Cl)c2)C(F)(F)F)cc1Cl", "note": "(stereo not drawn) [CC37, (E)-1-(2-Chloro-4-(4,4,4-trifluoro-3-(3,4,5-trichlorophenyl)but-1-en-1-yl)benzyl)-3-ethylthiourea]", "BAW Rating": "A (50-100)"}
{"smiles": "O=C(C1CC1)N(Cc1ccccn1)Cc1ccc(/C=C/C(c2cc(Cl)c(Cl)c(Cl)c2)C(F)(F)F)cc1C(F)(F)F", "note": "(stereo not drawn) [CC29, (E)-N-(Pyridin-2-ylmethyl)-N-(4-(4,4,4-trifluoro-3-(3,4,5-trichlorophenyl)but-1-enyl)-2-(trifluoromethyl)benzyl)cyclopropanecarboxamide]", "BAW Rating": "A (50-100)"}
{"smiles": "Cc1cc(/C=C/C(c2cc(Cl)cc(Cl)c2)C(F)(F)F)ccc1C(=O)N(C)Cc1ccc(Cl)nc1", "note": "(stereo not drawn) [AC117]", "BAW Rating": "A (50-100)"}
{"smiles": "O=C(NOc1ccc(/C=C/C(c2cc(Cl)c(Cl)c(Cl)c2)C(F)(F)F)cc1)C1CC1", "note": "(stereo not drawn) [CC52, (E)-N-(4-(4,4,4-Trifluoro-3-(3,4,5-trichlorophenyl)but-1-en-1-yl)phenoxy)cyclopropanecarboxamide]", "BAW Rating": "A (50-100)"}
{"smiles": "O=C(NCc1ccc(/C=C/C(c2cc(Cl)cc(Cl)c2)C(F)(F)F)cc1Cl)C1CC1", "note": "(stereo not drawn) [CC8]", "BAW Rating": "A (50-100)"}
{"smiles": "FC(F)(F)C(/C=C/c1ccc(-n2cncn2)cc1Cl)c1cc(Cl)cc(Cl)c1", "note": "(stereo not drawn) [DC67]", "BAW Rating": "A (50-100)"}
{"smiles": "N#Cc1cc(/C=C/C(c2cc(Cl)c(Cl)c(Cl)c2)C(F)(F)F)ccc1-n1cnc(N(C(=O)C2CC2)C(=O)C2CC2)n1", "note": "(stereo not drawn) [DC42, (E)-N-(1-(2-Cyano-4-(4,4,4-trifluoro-3-(3,4,5-trichlorophenyl)but-1-en-1-yl)phenyl)-1H-1,2,4-triazol-3-yl)-N-(cyclopropanecarbonyl)cyclopropanecarboxamide]", "BAW Rating": "A (50-100)"}
{"smiles": "Cc1cc(/C=C/C(c2cc(Cl)c(Cl)c(Cl)c2)C(F)(F)F)ccc1C(=O)NCC(=O)NCC(F)(F)F", "note": "(stereo not drawn) [AC78]", "BAW Rating": "A (50-100)"}
{"smiles": "O=C(NC1CSC1)c1ccc(/C=C/C(c2cc(Cl)c(Cl)c(Cl)c2)C(F)(F)F)cc1Br", "note": "(stereo not drawn) [AC32]", "BAW Rating": "A (50-100)"}
{"smiles": "O=C(NCc1ccc(/C=C/C(c2cc(Cl)c(Cl)c(Cl)c2)C(F)(F)F)cc1)C1CC1", "note": "(stereo not drawn) [CC5]", "BAW Rating": "A (50-100)"}
{"smiles": "N#Cc1cc(/C=C/C(c2cc(Cl)cc(Cl)c2)C(F)(F)F)ccc1-n1cnc([N+](=O)[O-])n1", "note": "(stereo not drawn) [DC37]", "BAW Rating": "A (50-100)"}
{"smiles": "O=C(NC1CS(=O)(=O)C1)c1ccc(/C=C/C(c2cc(Cl)c(Cl)c(Cl)c2)C(F)(F)F)cc1C(F)(F)F", "note": "(stereo not drawn) [AC35]", "BAW Rating": "A (50-100)"}
{"smiles": "O=C(CNC(=O)c1ccc(/C=C/C(c2ccc(F)c(Cl)c2)C(F)(F)F)cc1Br)NCC(F)(F)F", "note": "(stereo not drawn) [AC99]", "BAW Rating": "A (50-100)"}
{"smiles": "CCC(=O)NCc1ccc(/C=C/C(c2cc(Cl)cc(Cl)c2)C(F)(F)F)cc1", "note": "(stereo not drawn) [CC4]", "BAW Rating": "A (50-100)"}
{"smiles": "O=C(NCc1ccc(/C=C/C(c2cc(Cl)c(Cl)c(Cl)c2)C(F)(F)F)cc1Br)C1CC1", "note": "(stereo not drawn) [CC26]", "BAW Rating": "A (50-100)"}
{"smiles": "O=C(NC1CCc2cc(/C=C/C(c3cc(Cl)c(Cl)c(Cl)c3)C(F)(F)F)ccc21)C1CC1", "note": "(stereo not drawn) [BC6]", "BAW Rating": "A (50-100)"}
{"smiles": "Fc1cc(/C=C/C(c2cc(Cl)cc(Cl)c2)C(F)(F)F)ccc1-n1cncn1", "note": "(stereo not drawn) [DC48]", "BAW Rating": "A (50-100)"}
{"smiles": "O=C(NCc1ccc(/C=C/C(c2ccc(Cl)c(Cl)c2)C(F)(F)F)cc1Cl)C1CC1", "note": "(stereo not drawn) [CC17]", "BAW Rating": "A (50-100)"}
{"smiles": "O=C(NC1C[S+]([O-])C1)c1ccc(/C=C/C(c2cc(Cl)c(F)c(Cl)c2)C(F)(F)F)cc1F", "note": "(stereo not drawn) [AC87]", "BAW Rating": "A (50-100)"}
{"smiles": "C=CCNC(=O)CNC(=O)c1ccc(/C=C/C(c2cc(Cl)c(Cl)c(Cl)c2)C(F)(F)F)cc1Br", "note": "(stereo not drawn) [AC111]", "BAW Rating": "A (50-100)"}
{"smiles": "O=C(NC1CS(=O)(=O)C1)c1ccc(/C=C/C(c2cc(Cl)c(Cl)c(Cl)c2)C(F)(F)F)cc1Br", "note": "(stereo not drawn) [AC33]", "BAW Rating": "A (50-100)"}
{"smiles": "Cc1cc(/C=C/C(c2cc(Cl)cc(Cl)c2)C(F)(F)F)ccc1C(=O)NCC1CCCO1", "note": "(stereo not drawn) [AC118]", "BAW Rating": "A (50-100)"}
{"smiles": "Cc1cc(/C=C/C(c2cc(Cl)c(F)c(Cl)c2)C(F)(F)F)ccc1C(=O)NCc1cc(Cl)ccn1", "note": "(stereo not drawn) [AC77]", "BAW Rating": "A (50-100)"}
{"smiles": "O=C(CNC(=O)c1ccc(/C=C\\C(c2cc(Cl)c(Cl)c(Cl)c2)C(F)(F)F)cc1Br)NCC(F)(F)F", "note": "(stereo not drawn) [AC95, (Z)-2-Bromo-N-(2-oxo-2-((2,2,2-trifluoroethyl)amino)ethyl)-4-(4,4,4-trifluoro-3-(3,4,5-trichlorophenyl)but-1-en-1-yl)benzamide]", "BAW Rating": "A (50-100)"}
{"smiles": "FC(F)(F)c1cc(C(/C=C/c2ccc(-n3cncn3)cc2)C(F)(F)F)cc(C(F)(F)F)c1", "note": "(stereo not drawn) [DC16]", "BAW Rating": "A (50-100)"}
{"smiles": "N#Cc1cc(/C=C/C(c2cc(Cl)c(Cl)c(Cl)c2)C(F)(F)F)ccc1-n1cnc(N)n1", "note": "(stereo not drawn) [DC41, (E)-2-(3-Amino-1H-1,2,4-triazol-1-yl)-5-(4,4,4-trifluoro-3-(3,4,5-trichlorophenyl)but-1-en-1-yl)benzonitrile]", "BAW Rating": "A (50-100)"}
{"smiles": "Cc1cc(/C=C/C(c2cc(Cl)c(Cl)c(Cl)c2)C(F)(F)F)ccc1-n1cncn1", "note": "(stereo not drawn) [DC63]", "BAW Rating": "A (50-100)"}
{"smiles": "O=C(CNC(=O)c1ccc(/C=C/C(c2cc(Cl)c(F)c(Cl)c2)C(F)(F)F)cc1[N+](=O)[O-])NCC(F)(F)F", "note": "(stereo not drawn) [AC98]", "BAW Rating": "A (50-100)"}
{"smiles": "O=C(NCc1ncc(/C=C/C(c2cc(Cl)c(Cl)c(Cl)c2)C(F)(F)F)cc1Cl)C1CC1", "note": "(stereo not drawn) [CC45]", "BAW Rating": "A (50-100)"}
{"smiles": "CONC(=O)CNC(=O)c1ccc(/C=C/C(c2cc(Cl)c(Cl)c(Cl)c2)C(F)(F)F)cc1Br", "note": "(stereo not drawn) [AC110]", "BAW Rating": "A (50-100)"}
{"smiles": "FC(F)(F)C(/C=C/c1ccc(-n2cncn2)cc1)c1ccc(Cl)c(Cl)c1", "note": "(stereo not drawn) [DC12]", "BAW Rating": "A (50-100)"}
{"smiles": "CC(C)(C)OC(=O)CNC(=O)c1ccc(/C=C/C(c2cc(Cl)c(Cl)c(Cl)c2)C(F)(F)F)cc1Br", "note": "(stereo not drawn) [AC58]", "BAW Rating": "A (50-100)"}
{"smiles": "FC(F)(F)CNC(=S)CNC(=S)c1ccc(/C=C/C(c2cc(Cl)c(Cl)c(Cl)c2)C(F)(F)F)cc1Br", "note": "(stereo not drawn) [AC90, (E)-2-Bromo-N-(2-thioxo-2-((2,2,2-trifluoroethyl)amino)ethyl)-4-(4,4,4-trifluoro-3-(3,4,5-trichlorophenyl)but-1-en-1-yl)benzothioamide]", "BAW Rating": "A (50-100)"}
{"smiles": "FC(F)(F)C(/C=C/c1ccc(-n2cncn2)cc1)c1ccccc1", "note": "(stereo not drawn) [DC3]", "BAW Rating": "B (More than 0-Less than 50)"}
{"smiles": "Cc1cc(/C=C/C(c2cc(Cl)cc(Cl)c2)C(F)(F)F)ccc1C(=O)NCc1nnc(C2CC2)o1", "note": "(stereo not drawn) [AC89, (E)-N-((5-Cyclopropyl-1,3,4-oxadiazol-2-yl)methyl)-4-(3-(3,5-dichlorophenyl)-4,4,4-trifluorobut-1-en-1-yl)-2-methylbenzamide]", "BAW Rating": "A (50-100)"}
{"smiles": "Cc1cc(/C=C/C(c2cc(Cl)cc(Cl)c2)C(F)(F)F)ccc1C(=O)NCc1ncccn1", "note": "(stereo not drawn) [AC18]", "BAW Rating": "A (50-100)"}
{"smiles": "O=C(NC1CSC1)c1ccc(/C=C/C(c2cc(Cl)c(Cl)c(Cl)c2)C(F)(F)F)cc1C(F)(F)F", "note": "(stereo not drawn) [AC34]", "BAW Rating": "A (50-100)"}
{"smiles": "O=C(CNC(=O)c1ccc(/C=C/C(c2cc(Cl)c(F)c(Cl)c2)C(F)(F)F)cc1Br)NCC(F)(F)F", "note": "(stereo not drawn) [AC79, (E)-2-Bromo-4-(3-(3,5-dichloro-4-fluorophenyl)-4,4,4-trifluorobut-1-en-1-yl)-N-(2-oxo-2-((2,2,2-trifluoroethyl)amino)ethyl)benzamide]", "BAW Rating": "A (50-100)"}
{"smiles": "O=C(NC1CCN(C2COC2)CC1)c1ccc(/C=C/C(c2cc(Cl)c(Cl)c(Cl)c2)C(F)(F)F)cc1Br", "note": "(stereo not drawn) [AC108, (E)-2-Bromo-N-(1-(oxetan-3-yl)piperidin-4-yl)-4-(4,4,4-trifluoro-3-(3,4,5-trichlorophenyl)but-1-en-1-yl)benzamide]", "BAW Rating": "B (More than 0-Less than 50)"}
{"smiles": "Cc1cc(/C=C/C(c2cc(Cl)cc(Cl)c2)C(F)(F)F)ccc1C(=O)NC1CS(=O)(=O)C1", "note": "(stereo not drawn) [AC13]", "BAW Rating": "A (50-100)"}
{"smiles": "Cc1cc(/C=C/C(c2cc(Cl)c(F)c(Cl)c2)C(F)(F)F)ccc1C(=O)NCc1ccnc(Cl)c1", "note": "(stereo not drawn) [AC54]", "BAW Rating": "A (50-100)"}
{"smiles": "O=C(CC(F)(F)F)NC1CCc2cc(/C=C/C(c3cc(Cl)c(F)c(Cl)c3)C(F)(F)F)ccc21", "note": "(stereo not drawn) [BC8]", "BAW Rating": "A (50-100)"}
{"smiles": "O=C(Cn1ncc2cc(/C=C/C(c3cc(Cl)c(F)c(Cl)c3)C(F)(F)F)ccc2c1=O)NCC(F)(F)F", "note": "(stereo not drawn) [BC14, (E)-2-(6-(3-(3,5-Dichloro-4-fluorophenyl)-4,4,4-trifluorobut-1-en-1-yl)-1-oxophthalazin-2(1H)-yl)-N-(2,2,2-trifluoroethyl)acetamide]", "BAW Rating": "A (50-100)"}
{"smiles": "FC(F)(F)c1cc(/C=C/C(c2cc(Cl)cc(Cl)c2)C(F)(F)F)ccc1-n1cncn1", "note": "(stereo not drawn) [DC51]", "BAW Rating": "A (50-100)"}
{"smiles": "O=C(NCc1ccc(Cl)nc1)c1ccc(/C=C/C(c2cc(Cl)c(Cl)c(Cl)c2)C(F)(F)F)cc1Cl", "note": "(stereo not drawn) [AC28]", "BAW Rating": "A (50-100)"}
{"smiles": "Cc1cc(/C=C/C(c2cc(Cl)cc(Cl)c2)C(F)(F)F)ccc1C(=O)NCc1cnc(Cl)s1", "note": "(stereo not drawn) [AC15]", "BAW Rating": "A (50-100)"}
{"smiles": "Cc1cc(/C=C/C(c2cc(Cl)cc(Cl)c2)C(F)(F)F)ccc1C(=S)NCc1ccc(Cl)nc1", "note": "(stereo not drawn) [AC115, (E)-N-((6-Chloropyridin-3-yl)methyl)-4-(3-(3,5-dichlorophenyl)-4,4,4-trifluorobut-1-en-1-yl)-2-methylbenzothioamide]", "BAW Rating": "A (50-100)"}
